This is an account of results in PMC9380671, “Development of spiro-3-indolin-2-one containing compounds of antiproliferative and anti-SARS-CoV-2 properties” (Scientific Reports, 2022).

Read-outs that look alike come from different tables or passages of the source. A value given as a limit tells only on which side of the number the result lay.

Series [1] relates to A431 (skin squamous) cancer cell line. Put plainly: MTT antiproliferation, A431. The class given is cell-based, human. The settings on record: for IC50: Homo sapiens; for SI (selectivity index) A431: IC50 of RPE1/IC50 of cancer cell line. A digest of the protocol: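 Cells seeded 30000/well for 24 h, then treated for 72 h with triplicate wells per dose; 0.5% DMSO as negative control. MTT (2.5 mg ml^-1) added for 4 h at 37 °C, crystals dissolved in 10% SDS overnight. Surviving fraction = O.D. treated / O.D. control.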

For series [2], the system named is MCF7 (breast cancer cell line). Put plainly: PI-flow cytometry cell cycle studies. The format is cell-based, human. Conditions: MCF7, PI-FC, compound at its MTT IC50. On the procedure: Flow cytometry (FC) is a reliable technique for evaluation of cancer cell progression[72]–[74]. Illumination of the cells by lasers can identify the stained propidium iodide (PI) DNA cell content in stoichiometric population value. This is a commonly accessible methodology for studying cancer cell antiproliferation and cell cycle phase suppression.
Cell cycle studies for the most promising agents synthesized (6l and 6m) against MCF7 (breast) cancer call were conducted by the standard technique. The Cells were suspended in DMEM medium in addition to 1% antibiotic–antimycotic mixture (10000 μg ml^-1 potassium penicillin, 10000 μg ml^-1 streptomycin sulfate and 25 μg ml^-1 amphotericin B), 10% fetal bovine serum and 1% L-glutamine at 37 °C, under 5% CO2 and 95% humidity. Cells were seeded at concentration of 30000 cells per well in fresh complete growth medium in 96-well tissue culture microtiter plates for 24 h. Media was aspirated, fresh complete medium was added and cells were incubated with the IC50 concentration of the tested compounds which determined previously in the MTT antiproliferation testing assay. The ab139418-Propidium Iodide Flow Cytometry kit for cycle analysis (reader: BD FACS Calibur)^8 was used for cell cycle analysis. The Annexin V-FITC Apoptosis Detection Kit (Catalog#K101-25) was utilized for apoptosis studies.^9 All the studies were conducted according to the manufacturer’s instruction.

For series [3], the target named is T1, EGFR (Homo sapiens, UniProt P00533).
T1 construct: Western blot technique was considered for EGFR and VEGFR-2 properties determination; endogenous in cells; host or cells: MCF7 (breast cancer cell line)
The format is cell-based. Conditions: western blot, MCF7, compound at its MTT IC50; for EGFR RQ (relative quantification): control RQ 3.4461. A digest of the protocol:
(§1)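 Western blot of MCF7 breast cancer cells, each agent tested at its own IC50 from the MTT assay on that line, following the manufacturer's instructions.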

The target in series [4] is T2, VEGFR-2 (Homo sapiens, UniProt P35968).
T2 construct: Western blot technique was considered for EGFR and VEGFR-2 properties determination; endogenous in cells; host or cells: MCF7 (breast cancer cell line)
The class given is cell-based. The settings on record: western blot, MCF7, compound at its MTT IC50; for VEGFR-2 RQ (relative quantification): control RQ 3.2634. A digest of the protocol:
as §1

For series [5], the system named is SARS-CoV-2 (hCoV-19/Egypt/NRC-03/2020). Put plainly: Vero-E6 cell viral infection model, anti-SARS-CoV-2 IC50 (CPE, crystal violet). Conditions: for IC50: Severe acute respiratory syndrome coronavirus 2, Vero C1008; for SI = CC50/IC50: Vero-E6, SARS-CoV-2. The format is cell-based.
Series [6] is described as follows: MTT cytotoxicity assay (CC50). The class given is cell-based. Conditions: African green monkey, VERO-E6 cells. A digest of the protocol: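 VERO-E6 cells seeded at 3 x 10^5 cell/ml, grown 24 h at 37 °C, then exposed to compounds in triplicate for 24 h. Viability by MTT (4 h, 37 °C), formazan in acidified isopropanol read at 570 nm; CC50 by nonlinear regression versus untreated cells.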

Where [7] appears, read: A-431, 72 h, read-out: IC50 (µM) ± SEM A431.
The mark [8] stands for this setting: A-431, read-out: Observed log(IC50, μM) (A431) (converted).
[9] abbreviates: Vero-E6, 72 h, reduction of virus-induced CPE, read-out: IC50 (µM) SARS-CoV-2.
Setting [10] is: log of observed IC50 in μM, read-out: Observed log(IC50, μM) (SARS-CoV-2) (converted).

T1 sequence (P00533 25-1210): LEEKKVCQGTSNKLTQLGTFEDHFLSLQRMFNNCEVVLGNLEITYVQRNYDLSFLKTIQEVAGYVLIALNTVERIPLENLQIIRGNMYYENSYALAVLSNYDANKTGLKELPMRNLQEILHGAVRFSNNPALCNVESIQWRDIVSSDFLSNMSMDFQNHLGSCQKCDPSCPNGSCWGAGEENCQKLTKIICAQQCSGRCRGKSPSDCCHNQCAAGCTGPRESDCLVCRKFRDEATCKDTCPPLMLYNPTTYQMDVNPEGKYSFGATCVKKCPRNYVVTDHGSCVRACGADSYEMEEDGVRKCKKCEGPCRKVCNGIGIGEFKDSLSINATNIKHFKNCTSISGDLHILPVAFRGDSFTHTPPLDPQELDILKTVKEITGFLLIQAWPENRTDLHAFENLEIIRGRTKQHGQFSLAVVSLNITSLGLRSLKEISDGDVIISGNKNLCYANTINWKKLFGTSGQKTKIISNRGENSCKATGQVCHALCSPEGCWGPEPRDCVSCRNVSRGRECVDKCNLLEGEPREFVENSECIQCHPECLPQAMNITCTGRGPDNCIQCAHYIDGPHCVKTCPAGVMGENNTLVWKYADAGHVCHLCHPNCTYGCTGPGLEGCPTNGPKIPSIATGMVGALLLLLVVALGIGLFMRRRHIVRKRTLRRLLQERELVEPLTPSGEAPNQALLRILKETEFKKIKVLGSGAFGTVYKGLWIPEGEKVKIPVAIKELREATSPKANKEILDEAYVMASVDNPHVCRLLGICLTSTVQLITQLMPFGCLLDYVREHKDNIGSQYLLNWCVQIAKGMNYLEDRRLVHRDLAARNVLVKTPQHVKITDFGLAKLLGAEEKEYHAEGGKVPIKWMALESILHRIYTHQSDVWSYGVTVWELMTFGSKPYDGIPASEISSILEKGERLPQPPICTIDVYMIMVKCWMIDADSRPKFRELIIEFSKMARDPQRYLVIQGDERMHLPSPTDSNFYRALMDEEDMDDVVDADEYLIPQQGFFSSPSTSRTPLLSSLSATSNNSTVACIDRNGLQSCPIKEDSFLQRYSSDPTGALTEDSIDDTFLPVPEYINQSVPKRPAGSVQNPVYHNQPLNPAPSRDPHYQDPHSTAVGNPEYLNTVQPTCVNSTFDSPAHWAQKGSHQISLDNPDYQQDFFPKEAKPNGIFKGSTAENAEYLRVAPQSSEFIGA
T2 sequence (P35968 20-1356): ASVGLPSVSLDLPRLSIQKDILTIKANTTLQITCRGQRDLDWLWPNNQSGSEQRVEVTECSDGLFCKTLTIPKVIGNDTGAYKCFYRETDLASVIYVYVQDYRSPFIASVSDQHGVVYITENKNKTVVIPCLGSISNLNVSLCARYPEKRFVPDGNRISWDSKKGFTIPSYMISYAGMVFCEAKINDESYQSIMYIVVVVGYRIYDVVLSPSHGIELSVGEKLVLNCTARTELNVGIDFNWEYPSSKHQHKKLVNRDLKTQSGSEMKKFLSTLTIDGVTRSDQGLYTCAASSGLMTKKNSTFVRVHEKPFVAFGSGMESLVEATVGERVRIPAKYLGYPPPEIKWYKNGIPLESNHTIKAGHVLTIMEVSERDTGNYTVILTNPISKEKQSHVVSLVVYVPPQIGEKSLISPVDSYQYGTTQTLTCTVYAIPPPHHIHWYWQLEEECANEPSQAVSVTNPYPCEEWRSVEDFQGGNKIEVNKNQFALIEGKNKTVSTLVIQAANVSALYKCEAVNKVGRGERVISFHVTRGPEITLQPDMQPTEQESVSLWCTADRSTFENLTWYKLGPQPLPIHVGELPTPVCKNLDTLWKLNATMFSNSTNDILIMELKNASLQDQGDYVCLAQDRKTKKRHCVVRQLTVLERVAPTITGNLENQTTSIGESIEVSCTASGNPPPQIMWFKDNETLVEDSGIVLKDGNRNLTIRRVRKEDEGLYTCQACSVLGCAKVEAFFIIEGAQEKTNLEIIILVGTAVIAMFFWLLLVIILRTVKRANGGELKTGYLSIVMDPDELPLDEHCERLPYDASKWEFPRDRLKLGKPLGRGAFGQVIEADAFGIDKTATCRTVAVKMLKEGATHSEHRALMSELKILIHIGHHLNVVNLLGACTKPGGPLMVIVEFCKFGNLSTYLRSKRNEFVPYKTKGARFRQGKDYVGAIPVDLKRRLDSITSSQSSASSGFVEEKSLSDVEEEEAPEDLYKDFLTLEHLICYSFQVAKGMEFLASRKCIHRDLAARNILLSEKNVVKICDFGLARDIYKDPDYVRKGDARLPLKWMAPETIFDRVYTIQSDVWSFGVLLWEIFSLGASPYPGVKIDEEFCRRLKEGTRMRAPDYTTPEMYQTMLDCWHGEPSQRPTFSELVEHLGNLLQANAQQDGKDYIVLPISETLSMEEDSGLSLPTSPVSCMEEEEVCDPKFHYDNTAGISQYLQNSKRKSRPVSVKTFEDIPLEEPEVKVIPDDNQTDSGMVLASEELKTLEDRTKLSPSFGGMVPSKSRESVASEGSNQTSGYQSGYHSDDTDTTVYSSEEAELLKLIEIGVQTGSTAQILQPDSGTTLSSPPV

Regarding `CCS(=O)(=O)N1C/C(=C\c2ccc(Cl)cc2)C(=O)C2(C1)C(c1ccc(Cl)cc1)CN(C)C21C(=O)Nc2ccc(Cl)cc21` (centres unmarked) [Compound 6l, (E)-5-Chloro-5″-(4-chlorobenzylidene)-4′-(4-chlorophenyl)-1″-(ethylsulfonyl)-1′-methyldispiro[indoline-3,2′-pyrrolidine-3′,3″-piperidine]-2,4″-dione], the IC50 in series [1] (setting [7]) came out at 3.69 ± 0.33 µM. The IC50 in series [1] (setting [8]) is 3.69 µM. The “SI (selectivity index) A431” value in series [1] is on record as more than 13.5. For the same compound, in series [2], the “% DNA content G0–G1” value came to 66.13%, the “% DNA content G2/M” value turned out to be 10.13% and the “% DNA content S” value turned out to be 23.74%. For the same compound, in series [3], the “EGFR % Inhibition” value is on record as 65.7% and the “EGFR RQ (relative quantification)” value is reported as 1.18. Also, in series [4], the “VEGFR-2 % Inhibition” value was determined as 60.2% and the “VEGFR-2 RQ (relative quantification)” value came to 1.299. For the same compound, the IC50 in series [5] (setting [9]) is 31.4 µM. Further, the IC50 in series [5] (setting [10]) is 31.4 µM. Besides, the “SI = CC50/IC50” value in series [5] is reported as 15.1. The compound further gave a CC50 at 24 h in series [6] of 476 µM.
For the compound `CN1CC(c2ccc(Br)cc2)C2(CN(S(C)(=O)=O)C/C(=C\c3ccc(Br)cc3)C2=O)C12C(=O)Nc1ccccc12` (centres unmarked) [Compound 6m, (E)-5″-(4-Bromobenzylidene)-4′-(4-bromophenyl)-1′-methyl-1″-(methylsulfonyl)dispiro[indoline-3,2′-pyrrolidine-3′,3″-piperidine]-2,4″-dione], the IC50 in series [1] (setting [7]) turned out to be 2.43 ± 0.18 µM. Also, the IC50 in series [1] (setting [8]) was 2.43 µM. The “SI (selectivity index) A431” value in series [1] is reported as 6.1. The “efficacy, times more than the standard reference 5-fluorouracil (A431)” value in series [1] (ratio of IC50 values) is on record as “about 9.6 times”. For the same compound, in series [2], the “% DNA content G0–G1” value turned out to be 62.51%, the “% DNA content G2/M” value turned out to be 2.38% and the “% DNA content S” value is recorded as 35.11%. In series [3], the “EGFR % Inhibition” value was determined as 65.6% and the “EGFR RQ (relative quantification)” value turned out to be 1.1845. Besides, in series [4], the “VEGFR-2 % Inhibition” value is given as 61.3% and the “VEGFR-2 RQ (relative quantification)” value was found to be 1.264. Moreover, in series [5] (setting [9]), the IC50 came out at 8.92 µM. The IC50 in series [5] (setting [10]) is 8.92 µM. For the same compound, the “SI = CC50/IC50” value in series [5] worked out at 17.9. Moreover, the CC50 at 24 h in series [6] came to 160 µM.
